Source: article PMC12473028, “Isolation and Biological Evaluation of Human Tyrosinase Inhibitors from the Fruit of Xanthium strumarium L” (Molecules, 2025)
Like-named read-outs stand apart in the source and are kept apart here.

Key:
Assay in all cases: L-DOPA oxidation assay in MM418C1 cell lysate, single dose […] ([…] activity remaining)
Settings in all cases: read-out: % activity remaining at 1 mg/mL
[1] = target: T1, human tyrosinase (hsTYR) (Homo sapiens, UniProt P14679); assay type: cell-free (cell lysate)
T1 construct: gene TYR
T1 sequence (P14679 19-529): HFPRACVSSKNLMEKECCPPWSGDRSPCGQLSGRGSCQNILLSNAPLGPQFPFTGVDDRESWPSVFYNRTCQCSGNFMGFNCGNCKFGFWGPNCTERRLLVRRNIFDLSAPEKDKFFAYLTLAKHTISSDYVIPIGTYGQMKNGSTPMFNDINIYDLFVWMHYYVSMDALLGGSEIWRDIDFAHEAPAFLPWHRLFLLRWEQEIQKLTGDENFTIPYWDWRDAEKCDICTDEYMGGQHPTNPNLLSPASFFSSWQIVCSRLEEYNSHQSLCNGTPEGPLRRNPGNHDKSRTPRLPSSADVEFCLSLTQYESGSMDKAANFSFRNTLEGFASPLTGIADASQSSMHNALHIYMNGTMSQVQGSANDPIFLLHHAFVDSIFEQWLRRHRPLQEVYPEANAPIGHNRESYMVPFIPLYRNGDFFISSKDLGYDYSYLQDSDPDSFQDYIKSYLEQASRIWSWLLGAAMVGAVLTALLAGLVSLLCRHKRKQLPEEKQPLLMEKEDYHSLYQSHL

[2] = target: T1, human tyrosinase (hsTYR); assay type: cell-free
[3] = target: T1, human tyrosinase (hsTYR); assay type: biochemical

O=C(/C=C/c1ccc(O)c(O)c1)O[C@@H]1C[C@](O)(C(=O)O)C[C@@H](O)[C@H]1O [compound 7, 5-caffeoylquinic acid]
remaining activity at 1000 µg/mL [1]: 68.1%

CC1(C)C(CO[C@@H]2O[C@H](CO)[C@@H](O)[C@H](O)[C@H]2O)=CC(=O)C2=C1SCC(=O)N2 [compound 9, xanthiside]
remaining activity at 1000 µg/mL [2]: 76.9%

O=C(/C=C/c1ccc(O)c(O)c1)O[C@@H]1CC(OC(=O)/C=C/c2ccc(O)c(O)c2)(C(=O)O)C[C@@H](O)C1O (stereo partly drawn) [compound 11, 1,3-dicaffeoylquinic acid]
remaining activity at 1000 µg/mL [3]: 78.1%
